Source: patent publication US7749548B2, “Composite for the improvement of the smell of the armpit” (Ajou Medics Co., Ltd., priority 2004, dated 2010)

How the values were obtained:
Format in all cases: in vivo, human
[1] = test system: sweat bromidrosis (axillary odor) of volunteers; assay: Self-assessment of improvement of armpit odor by individual queries, 4 weeks of spraying twice a day; settings: after 4 weeks
Source text: 1. Application of Medical Treatment Composition of Example 1
2) Volunteers are selected from the group who can smell the ordor of sweat bromidrosis by sanitary cotton method and who smell over “mild” class.
3) Fifteen volunteers who were fitted for the above criteria and smell over “mild” class were selected.
(§1) Group I Test group with the composition of example 1
(§2) No one was allowed to use other cosmetics, perfume, and anti-germ soap not to influence any result.
Subjective judgment of odor degree through individual queries, which include:
4) degrees of improvement of odor level during the period of application; and
D) Percentage of Improvement by Self-Assessment
The degree of improvement of ordor after 4 weeks were measured by self-assessment. All of 15 persons replied over 50% of improvement in the experimental group, while 10 persons in comparison group expressed positive improvement and four persons' replied negative.

[2] = test system: axillary odor of volunteers with sweat bromidrosis; assay: Measurement of axillary odor by sanitary cotton, graded by two medical doctors
Source text: 1) Sanitary cottons are kept in both armpits for ten minutes by two medical doctors' inspection of armpit odor for classification of 4 grades.
“minimal” is almost smell-less;
“mild” is available smell within distance of 15 cm;
“moderate” is further than distance of 15 cm; and
“severe” is beyond the distance of 30 cm.
as §1, §2
Measurements of axillary odor were decided according to the smell degree by means of sanitary cotton, which were classified into four (4) grades. Namely, sanitary cottons are kept in both armpits for ten minutes by two medical doctors' inspection of armpit odor for classification of 4 grades as shown in the Table 1:
(2) Judgment of Results: After two (2) and four (4) weeks of the application of the composition, the odor grades were judged by means of sanitary cottons from both armpits of the participants.
Measurement of axillary ordor was carried out by two medical doctors by using sanitary cottons in order to evaluate objectively as shown below

[3] = Side-effects reported by the volunteers during the 4-week application; settings: 4 weeks, twice a day
[4] = sprayed twice a day in armpit, 15 volunteers
[5] = 15 volunteers, objective odor grade

## CCO [80% ethanol, ethanol]
[1]; of 15
  Persons who expressed positive improvement (self-assessment): 10 persons
  Persons who replied negative (self-assessment): four
[1]; [4]
  Percentage of improvement by self-assessment: Got worse: 0 (0%) persons (%)
  Percentage of improvement by self-assessment: Improved 25%: 1 (7%) persons (%)
  Percentage of improvement by self-assessment: Improved 50%: 2 (13%) persons (%)
  Percentage of improvement by self-assessment: Improved 75%: 7 (47%) persons (%)
  Percentage of improvement by self-assessment: Improved 100%: 1 (7%) persons (%)
  Percentage of improvement by self-assessment: Not applicable: 4 (27%) persons (%)
[2]; 15 volunteers, after 4 weeks
  Degree of improvement: 1stage of improvement: 6 (40%) persons (%)
  Degree of improvement: 2 stage or more of improvement: 1 (7%) persons (%)
  Degree of improvement: no improvement: 8 (53%) persons (%)
[2]; [5]
  Initiating period of improvement: After 2 weeks: 1 (7%) persons (%)
  Initiating period of improvement: Not improved: 8 (53%) persons (%)
  Initiating period of improvement: Within 2 weeks: 6 (40%) persons (%)
[2]; after 4 weeks, out of 15
  Persons who showed improvement of odor grade: 7 persons
[2]; after 4 weeks, listed as Group II
  Persons among the improved who showed 2 stages or more of improvement: one and One
[2]; after two weeks application
  Persons among the improved with improvement after two weeks application: 6 persons
[3]
  Number and percentage of side-effect: No side-effect: 12 (80%) persons (%)
[3]; slight tingle feel right after application
  Number and percentage of side-effect: Side effect: 3 (20%) persons (%)
